According to article PMC7732531 (Frontiers in Pharmacology, 2020):

Key:
in vitro [1] = settings: rat; for fraction unbound at 4 h, 1 µM: plasma
Protocol: The fraction of unbound YL-IPA08 in plasma and liver microsomes of rat and human, and brain homogenates of rat were determined utilizing Rapid Equilibrium Dialysis method ([Waters et al., 2008]). Rat brain homogenate was harvested in 4-fold volume (w/v) of PBS (pH 7.4). YL-IPA08 were spiked into fresh plasma, rat brain homogenate, liver microsomes (0.2 mg/ml protein) at concentration of 1 µM, and then dialyzed against […] on a shaker at 37°C for 4 h. To avoid the high non-specific binding of YL-IPA08, 0.01% Tween 80 was added in the incubation mixture. At the end of the incubation, protein was precipitated with acetonitrile (containing IS) and analyzed by LC-MS/MS. Phenacetin, quinidine, and warfarin were selected as positive control for the protein binding test.
The unbound fraction of YL-IPA08 in plasma or liver microsomes (ƒu,x) was calculated as shown in Eq. 2, and unbound fraction in the tissue homogenate (ƒu,b) was calculated according to Eq. 3. fu,x = Concbuffer chamber/Concplasma/liver microsomes chamber (2) fu,b = Concbuffer chamber/Concbrain homogenate chamber (3) The measured unbound fractions would be higher when a tissue is homogenized and diluted in buffer, the unbound fractions in an undiluted tissues (ƒu,brain) were calculated using Eq. 4 ([Kalvass and Maurer, 2002]). Undiluted fu,brain=1/D/((1/fu,brain homogenate)−1)+1/D (4) Where D represents the fold of dilution factor in brain homogenates. The free fraction of plasma and undiluted tissue is used in tissue-to-plasma exposure ratio calculation.

[2] = Brain distribution under steady state (Kp,uu); assay type: in vivo, rat
[3] = Prediction of therapeutic human plasma concentration from Kp,uu; settings: C b,u,human set to 4.9 pg/ml, rat K p,uu, human unbound fraction
Source text: K p,uu in the current investigation is critical to link the PD of in vitro and in vivo results (see the result part). What is more important is that K p,uu is often preserved across species ([Di et al., 2013]). Human K p,uu can be estimated using that of rat ( Kp,uu,human≈Kp,uu,rat ). Thus, unbound drug concentration in human brain can be calculated by using the rat K p,uu, rat times the human unbound plasma concentration [ Cb,u,human≈Kp,uu,rat ×Cp,u,human ]. At the current stage, if C b,u,human (4.9 pg/ml) was set as the in vitro TPSO-binding activity concentration for the onset efficacy, therapeutic human plasma concentration would be around 27.2 ng/ml according to the calculation.

in vitro [4] = settings: human, microsomes, pH 7.4
in vitro [5] = settings: rat, microsomes, pH 7.4
[6] = Metabolic stability in rat liver microsomes (NADPH / UDPGA); settings: RLM
[7] = Pharmacokinetics in rats with ABT pretreatment (intestinal and hepatic availability); settings: rat, plasma; for concentration at 0.033 h / concentration at 0.083 h / concentration at 8 h / concentration at 12 h / concentration at 24 h / concentration at 0.25 h / concentration at 0.5 h / concentration at 1 h / concentration at 2 h / concentration at 4 h / concentration at 6 h: Plasma concentration; for concentration at 0.033 h / concentration at 0.083 h / concentration at 8 h / concentration at 12 h / concentration at 24 h / concentration at 0.25 h / concentration at 0.5 h / concentration at 1 h / concentration at 2 h / concentration at 4 h / concentration at 6 h / AUC(0-inf) / MRT last: rats; for AUC(0-t) / AUC(0-inf) / MRT last / Vd / clearance / half-life: iv; for MRT last: MRT(0–t)
[8] = 0.1 mg/kg, p.o. ABT, i.v. YL-IPA08 (0.1 mg/kg)
[9] = 0.1 mg/kg, with ABT 100 mg/kg p.o., 15 h before dosing
[10] = 0.5 mg/kg, i.v. ABT, i.v. YL-IPA08 (0.5 mg/kg)
[11] = 0.5 mg/kg, with ABT 50 mg/kg i.v., 1 h before dosing

CCN(Cc1ccccn1)C(=O)Cc1c(-c2ccc(Cl)c(Cl)c2)nc2cc(C)ccn12 [YL-IPA08]
Concentration, Cbuffer chamber (in vitro [1]; 4 h, 1 µM): 5.44 ± 0.33 nM | Concentration, Cplasma/microsome chamber (in vitro [1]; 4 h, 1 µM): 872.67 ± 32.52 nM | Protein biding (%) (in vitro [1]; 4 h, 1 µM): 99.40 ± 0.01% | fraction unbound at 4 h, 1 µM (in vitro [1]): ~0.01 | fraction unbound at 4 h, 1 µM (in vitro [1]; Unbound fraction): 0.006 | unbound concentration in rat brain ([2]; estimated based on K p,uu): 0.0065 ng/mL | unbound concentration in brain ([2]; rats, after 1 mg/kg oral dosing, estimated from plasma concentrations and K p,uu): 6.5 pg/g | predicted therapeutic human plasma concentration [3]: ~27.2 ng/mL | microsomal CLint at 1 μM (in vitro [4]): 200 ± 30 µL/min/mg | microsomal CLint at 1 μM (in vitro [5]): 53 ± 20 µL/min/mg | Clint normalized by CYP content [6]: 3.47 ± 0.04 ml/min/nmol CYP protein | concentration at 0.033 h ([7]; intravenous, 0.1 mg/kg, p.o. 100 mg/kg ABT, i.v. 0.1 mg/kg YL-IPA08, 0.033 h): 465 ± 68.7 ng/mL | concentration at 0.083 h ([7]; intravenous, 0.1 mg/kg, p.o. 100 mg/kg ABT, i.v. 0.1 mg/kg YL-IPA08, 0.083 h): 398 ± 51.3 ng/mL | concentration at 8 h ([7]; intravenous, 0.1 mg/kg, p.o. 100 mg/kg ABT, i.v. 0.1 mg/kg YL-IPA08, 8 h): 8.97 ± 2.63 ng/mL | concentration at 12 h ([7]; intravenous, 0.1 mg/kg, p.o. 100 mg/kg ABT, i.v. 0.1 mg/kg YL-IPA08, 12 h): 4.58 ± 1.17 ng/mL | concentration at 24 h ([7]; intravenous, 0.1 mg/kg, p.o. 100 mg/kg ABT, i.v. 0.1 mg/kg YL-IPA08, 24 h): 0.65 ± 0.29 ng/mL | concentration at 0.033 h ([7]; intravenous, 0.5 mg/kg, i.v. 50 mg/kg ABT, i.v. 0.5 mg/kg YL-IPA08, 0.033 h): 398 ± 77.8 ng/mL | concentration at 0.083 h ([7]; intravenous, 0.5 mg/kg, i.v. 50 mg/kg ABT, i.v. 0.5 mg/kg YL-IPA08, 0.083 h): 285 ± 28.2 ng/mL | concentration at 12 h ([7]; intravenous, 0.5 mg/kg, i.v. 50 mg/kg ABT, i.v. 0.5 mg/kg YL-IPA08, 12 h): 6.73 ± 2.47 ng/mL | concentration at 24 h ([7]; intravenous, 0.5 mg/kg, i.v. 50 mg/kg ABT, i.v. 0.5 mg/kg YL-IPA08, 24 h): 2.01 ± 0.93 ng/mL | concentration at 0.25 h ([7]; intravenous, i.v. 50 mg/kg ABT, i.v. 0.5 mg/kg YL-IPA08, 0.25 h): 208 ± 29.4 ng/mL | concentration at 0.5 h ([7]; intravenous, i.v. 50 mg/kg ABT, i.v. 0.5 mg/kg YL-IPA08, 0.5 h): 156 ± 21.5 ng/mL | concentration at 1 h ([7]; intravenous, i.v. 50 mg/kg ABT, i.v. 0.5 mg/kg YL-IPA08, 1 h): 113 ± 14.7 ng/mL | concentration at 2 h ([7]; intravenous, i.v. 50 mg/kg ABT, i.v. 0.5 mg/kg YL-IPA08, 2 h): 54.8 ± 11.8 ng/mL | concentration at 4 h ([7]; intravenous, i.v. 50 mg/kg ABT, i.v. 0.5 mg/kg YL-IPA08, 4 h): 17.6 ± 5.36 ng/mL | concentration at 6 h ([7]; intravenous, i.v. 50 mg/kg ABT, i.v. 0.5 mg/kg YL-IPA08, 6 h): 10.8 ± 3.07 ng/mL | concentration at 8 h ([7]; intravenous, i.v. 50 mg/kg ABT, i.v. 0.5 mg/kg YL-IPA08, 8 h): 8.91 ± 3.06 ng/mL | concentration at 0.25 h ([7]; intravenous, p.o. 100 mg/kg ABT, i.v. 0.1 mg/kg YL-IPA08, 0.25 h): 266 ± 55.2 ng/mL | concentration at 0.5 h ([7]; intravenous, p.o. 100 mg/kg ABT, i.v. 0.1 mg/kg YL-IPA08, 0.5 h): 245 ± 30.4 ng/mL | concentration at 1 h ([7]; intravenous, p.o. 100 mg/kg ABT, i.v. 0.1 mg/kg YL-IPA08, 1 h): 192 ± 16.5 ng/mL | concentration at 2 h ([7]; intravenous, p.o. 100 mg/kg ABT, i.v. 0.1 mg/kg YL-IPA08, 2 h): 114 ± 13.7 ng/mL | concentration at 4 h ([7]; intravenous, p.o. 100 mg/kg ABT, i.v. 0.1 mg/kg YL-IPA08, 4 h): 38.7 ± 13.7 ng/mL | concentration at 6 h ([7]; intravenous, p.o. 100 mg/kg ABT, i.v. 0.1 mg/kg YL-IPA08, 6 h): 14.5 ± 3.66 ng/mL | AUC(0-t) ([7]; 0.1 mg/kg): 125 ± 46.9 ng·h/mL | AUC(0-inf) [7, 8]: 126 ± 46.6 ng·h/mL | MRT last [7, 8]: 5.45 ± 0.66 h | Vd [7, 9]: 1.54 ± 0.49 L/kg | clearance [7, 9]: 15 ± 4.78 mL/min/kg | half-life [7, 9]: 1.19 ± 0.12 h | AUC(0-t) ([7]; 0.5 mg/kg): 472 ± 64.3 ng·h/mL | AUC(0-inf) [7, 10]: 476 ± 65.8 ng·h/mL | MRT last [7, 10]: 3.82 ± 0.32 h | Vd [7, 11]: 2.24 ± 0.28 L/kg | clearance [7, 11]: 17.8 ± 2.74 mL/min/kg | half-life [7, 11]: 1.46 ± 0.14 h | concentration at 0.083 h ([7]; oral, 1 mg/kg, i.v. 50 mg/kg ABT, p.o. 1mg/kg YL-IPA08, 0.083 h): 9.32 ± 7.18 ng/mL | concentration at 8 h ([7]; oral, 1 mg/kg, i.v. 50 mg/kg ABT, p.o. 1mg/kg YL-IPA08, 8 h): 4.51 ± 2.58 ng/mL
